BindingDB's records for doi:10.1016/j.bmcl.2005.11.096 (Glaxosmithkline, 2006)

Assay: Agonist activity as induced proliferation in Ba/F3-hTpoR murine lymphocyte expressing human TPOR

| SMILES | EC50 [nM] |
| --- | --- |
| CC(C)(C)c1ccc(-c2cccc(-c3nc4ccc(CC(C(=O)O)C(=O)O)cc4[nH]3)n2)cc1 [2-((2-(6-(4-tert-butylphenyl)pyridin-2-yl)-1H-benzo[d]imidazol-5-yl)methyl)malonic acid] | 10000 |
| CC(=Cc1ccc2nc(-c3cccc(-c4ccc(C(C)(C)C)cc4)n3)[nH]c2c1)C(=O)O [3-(2-(6-(4-tert-butylphenyl)pyridin-2-yl)-1H-benzo[d]imidazol-5-yl)-2-methylacrylic acid] | 4500 |
| Cc1ccc(-c2csc(-c3nc4ccc(C=C5SC(S)=NC5=O)cc4[nH]3)c2)cc1C [5-((2-(4-(3,4-dimethylphenyl)thiophen-2-yl)-1H-benzo[d]imidazol-5-yl)methylene)-2-thioxothiazolidin-4-one] | 780 |
| Cc1ccc(-c2ccc(-c3nc4ccc(C=C5SC(S)=NC5=O)cc4[nH]3)s2)cc1C [5-((2-(5-(3,4-dimethylphenyl)thiophen-2-yl)-1H-benzo[d]imidazol-5-yl)methylene)-2-thioxothiazolidin-4-one] | 1750 |
| CC(C)(C)c1ccc(-c2ccc(-c3nc4ccc(C=C5SC(=S)NC5=O)cc4[nH]3)o2)cc1 [5-((2-(5-(4-tert-butylphenyl)furan-2-yl)-1H-benzo[d]imidazol-5-yl)methylene)-2-thioxothiazolidin-4-one] | 720 |
| Cc1ccc(-c2cccc(-c3nc4ccc(C=C5SC(S)=NC5=O)cc4[nH]3)n2)cc1C [5-((2-(6-(3,4-dimethylphenyl)pyridin-2-yl)-1H-benzo[d]imidazol-5-yl)methylene)-2-thioxothiazolidin-4-one] | 1600 |
| CC(C)(C)c1ccc(-c2cccc(-c3nc4ccc(C=C5SC(S)=NC5=O)cc4[nH]3)n2)cc1 [5-((2-(6-(4-tert-butylphenyl)pyridin-2-yl)-1H-benzo[d]imidazol-5-yl)methylene)-2-thioxothiazolidin-4-one] | 2000 |
| CC(C)(C)c1ccc(-c2cccc(-c3nc4ccc(C=C5SC(=S)NC5=O)cc4[nH]3)c2)cc1 [5-[1-[2-(4'-tert-Butyl-biphenyl-3-yl)-1H-benzoimidazol-5-yl]-methylidene]-2-thioxo-thiazolidin-4-one] | 900 |
